In US5734077A, “Substituted 2,2-dimethyl-omega-phenoxyalkanoic acids and esters” (Adir ET Compagnie, priority 1995, dated 1998):
Where two headings read alike, the source gives them in different places.

Columns and labels:
[1] = system: human low density lipoproteins (LDLs); assay: protective activity against oxidation of human LDLs induced by copper sulphate (TBARS determination); type: biochemical; conditions: copper sulphate 5 μM, 3 hours at 37° C., read-out: IC50, protection against the oxidation of LDLs
Description: The dose-effect relationship of those compounds was compared with that of probucol and a soluble analogue of vitamin E, trolox.
The anti-oxidant activity of the compounds was measured according to the method of Wallin et al. (Analytical Biochemistry, 1993, 208, 10-15).
Human LDLs are incubated for 3 hours at 37° C. in the presence of an oxidising agent, copper sulphate at a concentration of 5 μM, and of the compound to be tested at concentrations ranging from 10^-8 M to 2.5×10^-6 M. A non-oxidised control (LDLs only) and an oxidised control (LDLs plus copper sulphate) are also included in each of the series of tests.
The products of the LDL oxidation reaction are quantified by the colorimetric determination of "thiobarbituric acid reactive substances" (TBARS).
The protective activity of the tested compounds is expressed by the IC50 value, which corresponds to the concentration of product required to inhibit by 50% the oxidation of LDLs observed in the absence of product. The IC50 value was calculated from the dose-response curve.

[2] = system: plasma lipids (triglycerides, total cholesterol); assay: hypolipaemic activity in vivo in a diet-induced model of combined hyperlipaemia in the hamster; parameters: species or system Golden Syrian hamster; conditions: 200 mg/kg/day per os, 1 week; for hypocholesterolaemic effect compared with bezafibrate (in words) / triglyceride-lowering effectiveness compared with bezafibrate (in words): hamster, bezafibrate 200 mg/kg/day; for change in vivo at 200 mg/kg: Mesocricetus auratus, po, 168 h, hamsters on lipid-rich diet, versus control group, bezafibrate: mean ± sem of five experiments
Description: The hypolipaemic activity of certain representative compounds of the invention was evaluated in vivo in a diet-induced model of combined hyperlipaemia in the hamster.
Golden Syrian hamsters are given a diet rich in lipids (standard diet+0.5% cholesterol+10% cocoa oil) for 3 weeks before the beginning of treatment. That diet induces hypercholesterolaemia and hypertriglyceridaemia.
The products are prepared in tragacanth gum and are administered per os by forced gastric feeding for 1 week at a dose of 200 mg/kg/day. Each product is tested on a group of 6 animals. A placebo group (control) and a group of animals treated with a reference product (bezafibrate at a dose of 200 mg/kg/day) are included in each experiment.
At the end of the treatment, the animals are anaesthetised with ether. Blood is removed by abdominal puncture and the triglycerides and total cholesterol in the serums are determined. Five independent experiments were carried out in accordance with that protocol in order to evaluate the hypolipaemic effect of thirteen compounds of this invention.
The results are shown in Table B. The effect of the treatment is expressed as a percentage variation by comparison with the control group, calculated from the means of the absolute values of triglycerides and of total cholesterol. A negative value thus reflects a hypolipaemic effect of the treatment indicated. The values shown for bezafibrate represent the mean values (±sem) of five experiments.

[3] = read-out: Total cholesterol (% variation/control)
[4] = read-out: Triglycerides (% variation/control)

SMILES	IC50 [1]	hypocholesterolaemic effect compared with bezafibrate (in words) [2]	triglyceride-lowering effectiveness compared with bezafibrate (in words) [2]	change in vivo at 200 mg/kg [2, 3]	change in vivo at 200 mg/kg [2, 4]
CC(C)(CCCOc1ccc(OCCCSc2cc(C(C)(C)C)c(O)c(C(C)(C)C)c2)cc1)C(=O)O [Example 5, 2,2-dimethyl-5-{4-[3-(3,5-di-tert-butyl-4-hydroxyphenylthio)propyloxy]phenoxy}pentanoic acid]	550 nM				
CC(C)(CCCOc1ccc(OCCCOc2cc(C(C)(C)C)c(O)c(C(C)(C)C)c2)cc1)C(=O)O [Example 12, 2,2-dimethyl-5-{4-[3-(3,5-di-tert-butyl-4-hydroxyphenoxy)propyloxy]phenoxy}pentanoic acid]	640 nM	hypocholesterolaemic effect at least as great as bezafibrate	statistically at least as effective as bezafibrate	-63%	-84%
CC(C)(CCCOc1ccc(CCSc2cc(C(C)(C)C)c(O)c(C(C)(C)C)c2)cc1)C(=O)O [Example 2, 2,2-dimethyl-5-{4-[2-(3,5-di-tert-butyl-4-hydroxyphenylthio)ethyl]phenoxy}pentanoic acid]	210 nM	hypocholesterolaemic effect at least as great as bezafibrate	statistically at least as effective as bezafibrate	-52%	-82%
Cc1c(C)c2c(c(C)c1O)CCC(C)(C=CCCOc1ccc(OCCCC(C)(C)C(=O)O)cc1)O2 (racemic) [Example 17, R,S-2,2-dimethyl-5-{4-[4-(6-hydroxy-2,5,7,8-tetramethyl-3,4-dihydrobenzopyran-2-yl)but-3-enyloxy]phenoxy}pentanoic acid]	960 nM				
CC(C)(CCCOc1ccc(CCSc2cc(C(C)(C)C)c(O)c(C(C)(C)C)c2)cc1)C(=O)O [Example 1, 2,2-Dimethyl-5-{4-[2-(3,5-di-tert-butyl-4-hydroxyphenylthio)ethyl]phenoxy}pentanoic acid]	420 nM				
Cc1cc(SCCc2cccc(OCCCC(C)(C)C(=O)O)c2)c(C)c(C)c1O [Example 7, 2,2-dimethyl-5-{3-[2-(4-hydroxy-2,3,5-trimethylphenylthio)ethyl]phenoxy}pentanoic acid]	68 nM	hypocholesterolaemic effect at least as great as bezafibrate	statistically at least as effective as bezafibrate	-47%	-83%
CC(C)(CCCOc1cccc(CCCc2cc(C(C)(C)C)c(O)c(C(C)(C)C)c2)c1)C(=O)O [Example 20, 2,2-dimethyl-5-{3-[3-(4-hydroxy-3,5-di-tert-butylphenyl)propyl]phenoxy}pentanoic acid]	1100 nM			-58%	-71%
CC(C)(CCCOc1ccc(CCCOc2cc(C(C)(C)C)c(O)c(C(C)(C)C)c2)cc1)C(=O)O [Example 10, 2,2-dimethyl-5-{4-[3-(3,5-di-tert-butyl-4-hydroxyphenoxy)propyl]phenoxy}pentanoic acid]	240 nM				
Cc1c(C)c2c(c(C)c1O)CCC(C)(CCCCOc1ccc(OCCCC(C)(C)C(=O)O)cc1)O2 (racemic) [Example 18, R,S -2,2-dimethyl-5-{4-[4-(6-hydroxy-2,5,7,8-tetramethyl-3,4-dihydrobenzopyran-2-yl)butyloxy]phenoxy}pentanoic acid]	720 nM			-61%	-79%
Cc1cc(OCCCOc2ccc(OCCCC(C)(C)C(=O)O)cc2)c(C)c(C)c1O [Example 11, 2,2-dimethyl-5-{4-[3-(4-hydroxy-2,3,5-trimethylphenoxy)propyloxy]phenoxy}pentanoic acid]	190 nM			-55%	-60%
CC(C)(Oc1ccc(CCNC(=O)c2ccc(Cl)cc2)cc1)C(=O)O [Bezafibrate, bezafibrate, reference compound]				-48 ± 4%	-46 ± 19%
CC(C)(CCCOc1cccc(CCSc2cc(C(C)(C)C)c(O)c(C(C)(C)C)c2)c1)C(=O)O [Example 8, 2,2-dimethyl-5-{3-[2-(3,5-di-tert-butyl-4-hydroxyphenylthio)ethyl]phenoxy}pentanoic acid]	380 nM			-59%	-59%
Cc1cc(OCCCc2ccc(OCCCC(C)(C)C(=O)O)cc2)c(C)c(C)c1O [Example 15, 2,2-dimethyl-5-{4-[3-(4-hydroxy-2,3,5-trimethylphenoxy)propyl]phenoxy}pentanoic acid]	97 nM	hypocholesterolaemic effect at least as great as bezafibrate	statistically at least as effective as bezafibrate	-77%	-93%
Cc1cc(SCCCc2ccc(OCCCC(C)(C)C(=O)O)cc2)c(C)c(C)c1O [Example 4, 2,2-dimethyl-5-{4-[3-(4-hydroxy-2,3,5-trimethylphenylthio)propyl]phenoxy}pentanoic acid]	460 nM			-48%	-77%
CC(C)(CCCOc1ccc(CCCSc2cc(C(C)(C)C)c(O)c(C(C)(C)C)c2)cc1)C(=O)O [Example 3, 2,2-dimethyl-5-{4-[3-(3,5-di-tert-butyl-4-hydroxyphenylthio)propyl]phenoxy}pentanoic acid]	530 nM	hypocholesterolaemic effect at least as great as bezafibrate	statistically at least as effective as bezafibrate	-77%	-87%
CC(C)(CCCOc1ccc(CCOc2cc(C(C)(C)C)c(O)c(C(C)(C)C)c2)cc1)C(=O)O [Example 16, 2,2-dimethyl-5-{4-[2-(4-hydroxy-3,5-di-tert-butylphenoxy)ethyl]phenoxy}pentanoic acid]	770 nM			-66%	-54%
CC(C)(CCCOc1cccc(CCOc2cc(C(C)(C)C)c(O)c(C(C)(C)C)c2)c1)C(=O)O [Example 13, 2,2-dimethyl-5-{3-[2-(3,5-di-tert-butyl-4-hydroxyphenoxy)ethyl]phenoxy}pentanoic acid]	300 nM	hypocholesterolaemic effect at least as great as bezafibrate	statistically at least as effective as bezafibrate	-68%	-84%
Cc1cc(SCCCOc2ccc(OCCCC(C)(C)C(=O)O)cc2)c(C)c(C)c1O [Example 6, 2,2-dimethyl-5-{4-[3-(4-hydroxy-2,3,5-trimethylphenylthio)propyloxy]phenoxy}pentanoic acid]	170 nM			-39%	-59%
Cc1cc(OCCc2ccc(OCCCC(C)(C)C(=O)O)cc2)c(C)c(C)c1O [Example 9, 2,2-dimethyl-5-{4-[2-(4-hydroxy-2,3,5-trimethylphenoxy)ethyl]phenoxy}pentanoic acid]	200 nM				
Cc1c(C)c2c(c(C)c1O)CCC(C)(C(=O)O)O2 (centres unmarked) [Trolox, trolox, reference compound]	1600 nM				
Cc1c(C)c2c(c(C)c1O)CCC(C)(CCCc1cccc(OCCCC(C)(C)C(=O)O)c1)O2 (racemic) [Example 19, R,S-2,2-dimethyl-5-{3-[3-(6-hydroxy-2,5,7,8-tetramethyl-3,4-dihydrobenzopyran-2-yl)-propyl]phenoxy}pentanoic acid]	680 nM				
CC(C)(Sc1cc(C(C)(C)C)c(O)c(C(C)(C)C)c1)Sc1cc(C(C)(C)C)c(O)c(C(C)(C)C)c1 [Probucol, probucol, reference compound]	5800 nM				
Cc1cc(OCCc2cccc(OCCCC(C)(C)C(=O)O)c2)c(C)c(C)c1O [Example 14, 2,2-dimethyl-5-{3-[2-(4-hydroxy-2,3,5-trimethylphenoxy)ethyl]phenoxy}pentanoic acid]	88 nM				
